# Key:
# Format in all cases: functional
# [1] = test system: T47D; test: Anticancer activity against human T47D cells assessed cell growth at 10 uM after 48 hrs by sulforhodamine B assay relative to control
# [2] = test system: HL-60(TB); test: Anticancer activity against human HL-60(TB) cells after 48 hrs by sulforhodamine B assay
# [3] = test system: OVCAR-8; test: Anticancer activity against human OVCAR8 cells assessed cell growth at 10 uM after 48 hrs by sulforhodamine B assay relative to control
# [4] = test system: NCI/ADR-RES; test: Anticancer activity against human NCI/ADR-RES cells after 48 hrs by sulforhodamine B assay
# [5] = test system: SR; test: Anticancer activity against human SR cells after 48 hrs by sulforhodamine B assay
# [6] = test system: SF-295; test: Anticancer activity against human SF295 cells after 48 hrs by sulforhodamine B assay
# [7] = test system: HCT-116; test: Anticancer activity against human HCT116 cells after 48 hrs by sulforhodamine B assay
# [8] = test system: TK-10; test: Anticancer activity against human TK10 cells assessed cell growth at 10 uM after 48 hrs by sulforhodamine B assay relative to control
# [9] = test system: HCT-116; test: Anticancer activity against human HCT116 cells assessed cell growth at 10 uM after 48 hrs by sulforhodamine B assay relative to control
# [10] = test system: SW-620; test: Anticancer activity against human SW620 cells after 48 hrs by sulforhodamine B assay
# [11] = test system: OVCAR-5; test: Anticancer activity against human OVCAR5 cells assessed cell growth at 10 uM after 48 hrs by sulforhodamine B assay relative to control
# [12] = test system: SK-MEL-28; test: Anticancer activity against human SK-MEL-28 cells after 48 hrs by sulforhodamine B assay
# [13] = test system: Malme-3M; test: Anticancer activity against human MALME-3M cells after 48 hrs by sulforhodamine B assay
# [14] = test system: SF-295; test: Anticancer activity against human SF295 cells assessed cell growth at 10 uM after 48 hrs by sulforhodamine B assay relative to control
# [15] = test system: A498; test: Anticancer activity against human A498 cells after 48 hrs by sulforhodamine B assay
# [16] = test system: COLO 205; test: Anticancer activity against human COLO205 cells after 48 hrs by sulforhodamine B assay
# [17] = test system: NCI-H460; test: Anticancer activity against human NCI-H460 cells after 48 hrs by sulforhodamine B assay
# [18] = test system: KM12; test: Anticancer activity against human KM12 cells assessed cell growth at 10 uM after 48 hrs by sulforhodamine B assay relative to control
# [19] = test system: MCF7; test: Anticancer activity against human MCF7 cells assessed cell growth at 10 uM after 48 hrs by sulforhodamine B assay relative to control
# [20] = test system: A498; test: Anticancer activity against human A498 cells assessed cell growth at 10 uM after 48 hrs by sulforhodamine B assay relative to control
# [21] = test system: SN12C; test: Anticancer activity against human SN12C cells after 48 hrs by sulforhodamine B assay
# [22] = test system: UACC-62; test: Anticancer activity against human UACC62 cells after 48 hrs by sulforhodamine B assay
# [23] = test system: HCT-15; test: Anticancer activity against human HCT15 cells after 48 hrs by sulforhodamine B assay
# [24] = test system: OVCAR-3; test: Anticancer activity against human OVCAR-3 cells after 48 hrs by sulforhodamine B assay
# [25] = test system: DU-145; test: Anticancer activity against human DU145 cells after 48 hrs by sulforhodamine B assay
# [26] = test system: HCT-15; test: Anticancer activity against human HCT15 cells assessed cell growth at 10 uM after 48 hrs by sulforhodamine B assay relative to control
# [27] = test system: SK-OV-3; test: Anticancer activity against human SKOV3 cells after 48 hrs by sulforhodamine B assay
# [28] = test system: MDA-MB-435; test: Anticancer activity against human MDA-MB-435 cells after 48 hrs by sulforhodamine B assay
# [29] = Anticancer activity against human Hs 578T cells after 48 hrs by sulforhodamine B assay
# [30] = test system: OVCAR-5; test: Anticancer activity against human OVCAR5 cells after 48 hrs by sulforhodamine B assay
# [31] = test system: SK-OV-3; test: Anticancer activity against human SKOV3 cells assessed cell growth at 10 uM after 48 hrs by sulforhodamine B assay relative to control
# [32] = test system: MDA-MB-468; test: Anticancer activity against human MDA-MB-468 cells after 48 hrs by sulforhodamine B assay
# [33] = test system: MCF7; test: Anticancer activity against human MCF7 cells after 48 hrs by sulforhodamine B assay
# [34] = test system: SF-268; test: Anticancer activity against human SF268 cells assessed cell growth at 10 uM after 48 hrs by sulforhodamine B assay relative to control
# [35] = test system: NCI-H226; test: Anticancer activity against human NCI-H226 cells after 48 hrs by sulforhodamine B assay
# [36] = test system: SF-268; test: Anticancer activity against human SF268 cells after 48 hrs by sulforhodamine B assay
# [37] = test system: SW-620; test: Anticancer activity against human SW620 cells assessed cell growth at 10 uM after 48 hrs by sulforhodamine B assay relative to control
# [38] = test system: NCI-H322M; test: Anticancer activity against human NCI-H322M cells after 48 hrs by sulforhodamine B assay
# [39] = test system: ACHN; test: Anticancer activity against human ACHN cells after 48 hrs by sulforhodamine B assay
# [40] = test system: MDA-MB-435; test: Anticancer activity against human MDA-MB-435 cells assessed cell growth at 10 uM after 48 hrs by sulforhodamine B assay relative to control
# [41] = test system: T47D; test: Anticancer activity against human T47D cells after 48 hrs by sulforhodamine B assay
# [42] = read-out: LC50 (the source's name)
structure (smiles),measurement,setting,value
CCCCCCCCCCCCCCCCCC[n+]1ccn(C)c1.F[P-](F)(F)(F)(F)F,Activity,[1],13.4%
same,GI50,[2],185 nM
same,CC50,[2]; [42],> 100000 nM
same,Activity,[3],-34.11%
same,GI50,[4],1450 nM
same,GI50,[5],1850 nM
same,CC50,[5]; [42],> 100000 nM
same,GI50,[6],503 nM
same,CC50,[6]; [42],6020 nM
same,GI50,[7],411 nM
same,Activity,[8],-59.16%
same,Activity,[9],-27.74%
same,GI50,[10],519 nM
same,LC50,[10],4320 nM
same,Activity,[11],-60.74%
same,LC50,[12],5160 nM
same,GI50,[13],1020 nM
same,LC50 (concentration killing 50% of cells),[13],7690 nM
same,Activity,[14],-28.21%
same,GI50,[15],1150 nM
same,CC50,[15]; [42],7550 nM
same,GI50,[16],389 nM
same,GI50,[17],636 nM
same,LC50,[17],4380 nM
same,Activity,[18],-60.81%
same,Activity,[19],1.35%
same,Activity,[20],-51.56%
same,GI50,[21],1200 nM
same,LC50,[21],5280 nM
same,GI50,[22],1180 nM
same,LC50,[22],5200 nM
same,GI50,[23],1010 nM
same,CC50,[23]; [42],4660 nM
same,GI50,[24],453 nM
same,LC50 (50% lethal concentration),[24],4390 nM
same,GI50,[25],1020 nM
same,CC50,[25]; [42],4680 nM
same,Activity,[26],9.24%
same,GI50,[27],1810 nM
same,CC50,[27]; [42],4200 nM
same,GI50,[28],851 nM
same,CC50,[28]; [42],6640 nM
same,GI50,[29],536 nM
same,CC50,[29]; [42],6150 nM
same,GI50,[30],1080 nM
same,CC50,[30]; [42],7240 nM
same,Activity,[31],-6.01%
same,GI50,[32],159 nM
same,LC50,[32],5110 nM
same,GI50,[33],728 nM
same,LC50 (50% cell kill),[33],4500 nM
same,Activity,[34],-48.33%
same,GI50,[35],1170 nM
same,LC50,[35],5740 nM
same,GI50,[36],1260 nM
same,CC50,[36]; [42],6060 nM
same,Activity,[37],-48.51%
same,GI50,[38],1610 nM
same,LC50,[38],> 100000 nM
same,GI50,[39],934 nM
same,LC50,[39],4620 nM
same,Activity,[40],-71.22%
same,GI50,[41],719 nM

# Reference: ChEMBL document CHEMBL1153245, “A profile of the in vitro anti-tumor activity of imidazolium-based ionic liquids” (2010)
